From PMC5318439, “The Novel Toll-Like Receptor 2 Agonist SUP3 Enhances Antigen Presentation and T Cell Activation by Dendritic Cells” (Frontiers in Immunology, 2017)
Where a SMILES comes first, the peptide text is derived from it. The star is where a group is joined. X1 = CCCCCCCCCCCCCCNC(=O)OC[C@H](C*)OC(=O)NCCCCCCCCCCCCCC; Palmitoyl = CCCCCCCCCCCCCCCC(=O)*

Key:
[1] = Serum inflammatory cytokines after i.v. administration; assay type: in vivo, mice; settings: 2 nmol per mouse i.v., 1 h, ELISA
Description: Splenic DCs (5 × 10^5 cells/mL) were stimulated by Pam3 (200 nM), SUP3 (200 nM), or CpG ODN 1668 (20 nM; Adipogen IAX-200-001) in the GM-CSF (20 ng/mL) supplemented medium for indicated periods. Cell culture supernatants were harvested at indicated time points and stored at −40°C. RAW 264.7 cells and GMDCs were stimulated by lipopolysaccharide (LPS) (20 ng/mL; Adipogen IAX-100-013), Pam3, or SUP3 (both at 200 nM) for 24 h. For in vivo administration, Pam3 (2 nmol per mouse), SUP3 (2 nmol per mouse), or LPS (1 µg per mouse) were intravenously (i.v.) injected via tail veins. Serum was obtained through tail vein bleeding and centrifuged after coagulation and stored at −40°C. Cytokines (IL-6, eBioscience 88-7064; TNFα, eBioscience 88-7324; IL-12p40, BioLegend 431604), chemokine (MIP1α, R&D Systems DY450-05), and total IgM (eBioscience, 88-50470) were quantified by ELISA kits following the instructions of manufacturers.
Figure 2 SUP3 induced more vigorous cytotoxic T lymphocytes (CTLs) responses than Pam3CSK4 without excessive production of inflammatory cytokines in vivo. […] The percentages of pentamer positive cells (CD19^− CD3^+ CD8^+ SIINFEKL/H-2Kb-Pentamer^+) in spleens, i.e., the OVA-specific CD8^+ T cells, were determined by flow cytometry (A) and the statistic calculation is presented in (B). […] “n.d.” indicates “not detected.” *p < 0.05, **p < 0.01. […]

CD8^+ cDCs = experiment: Costimulatory and MHC molecule expression on CD8+ cDCs in vitro; assay type: cell-based, mice; settings: 200 nM, GM-CSF 20 ng/mL, 24 h, flow cytometry
Description: Single cell suspensions were prepared, and cells were stained by fluorescence-conjugated antibodies and viability dye 7-AAD (eBioscience 00-6993) at 4°C for 30 min in the dark. Cells were washed, resuspended, and analyzed on LSR Fortessa (Becton Dickinson).
Figure 4 SUP3 stimulated maturation of CD8^+ conventional dendritic cells (cDCs). (A) Purified CD8^+ cDCs were treated with SUP3 (200 nM) or Pam3 (200 nM) in the presence of granulocyte-macrophage colony-stimulating factor (GM-CSF) (20 ng/mL) for 24 h. The surface expression of costimulatory and major histocompatibility complex (MHC) molecules were then analyzed by flow cytometry. Representative data from three independent experiments were shown. “Isotype” represented relative isotype antibody staining of Pam3 or SUP3 stimulated cells. (B) SUP3 (2 nmol per mouse), Pam3 (2 nmol per mouse), or PBS were i.v. injected into mice for 1 h. Splenic CD8^+ cDCs were enriched, and surface expression of CD40 and CD86 was analyzed by flow cytometry. Representative data from two independent experiments with three mice for each group were shown. […] Supernatants were harvested 24 and 48 h post-stimulation, and cytokines were measured by ELISA. […]

Compound | serum IL-6, TNFα, IL-12p40 and MIP1α levels [1] | expression of CD40, CD80, CD86, and MHC-II on CD8+ cDCs (CD8^+ cDCs)
CCCCCCCCCCCCCCCC(=O)N[C@@H](CSC[C@@H](COC(=O)NCCCCCCCCCCCCCC)OC(=O)NCCCCCCCCCCCCCC)C(=O)NCC(=O)N[C@@H](CCCCN)C(=O)N[C@@H](CCCCN)C(=O)N[C@@H](CCCCN)C(=O)O [SUP3, (2S,5S,8S,14R,18R)-2,5,8-tris(4-aminobutyl)-4,7,10,13,21-pentaoxo-14-palmitamido-18-((tetradecylcarbamoyl)oxy)-20-oxa-16-thia-3,6,9,12,22-pentaazahexatriacontan-1-oic acid] (Palmitoyl-C(X1)GKKK-OH) | maintained at low levels | substantial upregulation
Pam3CSK4 [reference compound] | maintained at low levels | substantial upregulation
